# pIC50: −log10 of the molar value.
# What was measured:
# [1] = tested on: RARE/β-galactosidase reporter construct in F9 teratocarcinoma cell line; assay: F9 teratocarcinoma RARE/β-galactosidase reporter bioassay; format: cell-based
# Protocol: The β-gal assay consists of an F9 teratocarcinoma cell line stably transfected with a reporter construct which contains a 64 bp retinoic acid-response element (RARE) from the promoter region of the human RARβ gene (Ellis et al., Nature 343, 377-381 (1990)) placed immediately upstream of the E. coli lacZ gene. […] Cells were maintained on gelatin-coated dishes in modified L15 CO2 tissue culture medium (Specialty Media, Lavallette, N.J.) supplemented with 20% fetal calf serum and 0.8 mg/ml G418 (complete medium), and were used when 80-90% confluent.
# To prepare tissue extracts, tissues were surgically isolated from Day 10 chick embryos and included. The metaphyseal-diaphyseal portion of cartilaginous humerus and tibia from which adherent perichondral tissues were carefully removed, liver, brain, gizzard and heart. During isolation, all tissues were kept in saline on ice under yellow safety light conditions to protect the retinoids. […]
# Briefly, cultures were fixed with 0.1% glutaraldehyde in 0.1 M phosphate buffer pH 7.0 for 15 min at room temperature. […] After rinsing again, cultures were extracted with 0.2 ml of DMSO and absorbance of the extracted material was determined at 655 nm using a Perkin-Elmer spectrophotometer. […]
# [2] = tested on: caudal sternal chondrocytes; assay: Cultured immature caudal sternal chondrocytes, Northern blot of type X collagen; format: cell-based, chick
# Protocol: (§1) Cell populations rich in prehypertrophic and early hypertrophic chondrocytes were isolated from the cephalic core region of Day 17-18 chick embryo sterna, while immature chondrocytes were isolated from the caudal sternal region (Gibson and Flint, J. Cell Biol. 101, 277-284 (1985); Pacifici et al., Exp. Cell Res. 195, 38-46 (1991); Iwamoto et al., Exp. Cell Res. 207, 413-420 (1993b)). The dissected cephalic and caudal tissues were incubated for 1 hr at 37° C. in saline containing 0.1% type 1-S collagenase (Sigma Chemical Co., St. Louis, Mo.); the cells released after this incubation were discarded as they consisted mainly of perichondrial and blood cells. The remaining tissue was incubated in a fresh mixture of 0.25% trypsin and 0.1% collagenase for 3 hr at which point it was completely digested. The freshly isolated chondrocytes were plated at a density of 2×10^5 cells/well in 12-well plates, 1×10^6 cells/60 mm dish or 3×10^6 cells/100 mm dish. The cephalic core chondrocytes were grown continuously, without subculturing, for 2 to 3 weeks in monolayer. During the first 2 days, cultures received 4 U/ml of testicular hyaluronidase to minimize cell detachment (Leboy et al., J. Biol. Chem. 264, 17281-17286 (1989)), and cultures became confluent by 2 weeks. The caudal immature chondrocytes were first grown for 5 days at which point floating immature chondrocytes were separated from attached contaminating fibroblastic cells. The floating cells were trypsinized and replated in secondary cultures in the presence of hyaluronidase to increase cell attachment. Cultures were fed every other day with Dulbecco's modified high-glucose Eagle's medium (GIBCO BRL, Gaithersburg, Md.) containing 10% defined fetal calf serum (Hyclone, Logan, Utah), 2 mM L-glutamine, and 50 U/ml penicillin and streptomycin (Pacifici et al., Exp. Cell Res. 195, 38-46 (1991)). When indicated, cultures were treated with all-trans-RA (Sigma) or combinations of all-trans-RA and Ro 41-5253. […]
# [3] = tested on: cephalic core sternal chondrocytes; assay: Cultured cephalic core sternal chondrocytes, alkaline phosphatase and type X collagen gene expression; format: cell-based, chick
# Protocol: as §1, with “41-5253. Stock solutions of these retinoids were prepared in DMSO and were diluted into working solutions in 95% ethanol; control dishes received an equivalent amount of vehicle without retinoids. To analyze mineralization, cephalic sternal control and retinoid-treated cultures were supplemented with 3 mM β-glycerophosphate to serve as a phosphate source. During these various regimens, medium was changed daily. To localize calcium deposits, the cell layers were stained with 0.5% alizarin red S solution, pH 4.0, for 5 min at room temperature. In experiments in which cultures were treated for 2, 4 or 6 days, retinoid treatments were initiated so that all cultures (including control cultures) were harvested simultaneously.” for “41-5253.”
# [4] = tested on: cephalic core sternal chondrocytes; assay: Mineralization of cultured cephalic core sternal chondrocytes, alizarin red staining; format: cell-based, chick; details: 6 days
# Protocol: as §1
# [5] = tested on: RARE/β-galactosidase reporter construct in F9 teratocarcinoma cell line; details: cited from earlier work
# [6] = tested on: humerus development (chondrocyte maturation, endochondral ossification); assay: Antagonist-filled bead implantation in chick embryo wing bud, humerus development; format: in vivo
# Protocol: This procedure was carried out as described previously (Noji et al., Acta Histochem. Cytochem. 23, 353-366 (1990); Koyama et al., Dev. Dynam. 203, 152-162 (1995)). Briefly, chick embryos or embryo parts were fixed with 4% paraformaldehyde for 4 hr or overnight, embedded in paraffin and sectioned. The 5 μm thick sections were pretreated with 1 μg/ml proteinase K (Sigma, St. Louis, Mo.) in 50 mM Tris, 5 mM EDTA, pH 7.5 at room temperature for 1 min, immediately postfixed in 4% paraformaldehyde buffer for 10 min, and then washed twice in PBS containing 2 mg/ml glycine for 10 min/wash. Sections were treated for 15 min with a freshly prepared solution of 0.25% acetic anhydride in triethanolamine buffer. Sections were hybridized with ^35S-labeled antisense or sense chick cDNA riboprobes (approximately 1×10^6 DPM/section) at 50° C. for 16 hr. After hybridization, slides were washed three times with 2×SSC containing 50% formamide at 50° C. for 20 min/wash, treated with 20 μg/ml RNaseA for 30 min at 37° C., and finally washed three times with 0.1×SSC at 50° C. for 10 min/wash. Sections were coated with Kodak NTB3 emulsion diluted 1:1 with water, exposed for 7 days, and developed with Kodak D19 for 3 min at 20° C. After staining with hematoxylin and eosin, slides were analyzed with a Nikon microscope using bright and dark field optics.
# This range of concentrations was based on previous studies (see, for example, Lu et al., Development 124, 1643-1651 (1997)). Antagonist solutions were prepared in DMSO and used under yellow light conditions; control beads were soaked in DMSO alone. Beads were then dipped very briefly in phenol red-containing saline (HBSS) so that they were more readily visible during implantation.
# Antagonist-containing or control beads were implanted in the wing bud of stage 21-22 (Day 3-3.5) or stage 27-28 (Day 5.5) chick embryos (Hamburger and Hamilton, J. Morphol. 88, 49-92 (1951)); contralateral wing bud served as control. A small window was opened in the egg shell and a small incision was made on the antero-dorsal proximal portion of the bud. One bead or several beads were then placed in the vicinity of the prospective humerus as specified below, and eggs were sealed and returned to the incubator. On the day of analysis, embryos were sacrificed by decapitation, and control and operated wings were examined by microscopy, using a Nikon SMZ-U dissecting photomicroscope, and humerus length was measured micrometrically. Because length of control humeri varied slightly from embryo to embryo, possibly reflecting slight differences in age, humeri were considered affected by antagonist treatment only if their length was shortened at least 25% over control value. Companion control and antagonist-treated limbs were processed for histology and in situ hybridization using tissue sections.
# Having shown that RAR gene expression changes during chondrocyte maturation and that the cartilaginous elements as well as their surrounding perichondrial tissues contain endogenous retinoids, experiments were carried out to determine what roles the RARs and their ligands may play during chondrocyte maturation and skeletogenesis (see Example I, Antagonist Treatment). To approach this question, a bead containing retinoid antagonists was implanted in the vicinity of the prospective humeral mesenchymal condensation in stage 21-22 (Day 3-3.5) chick embryos and determined whether humerus development had been impaired by Day 10 in vivo.
# RARγ [7] = target: T1, RARγ (Homo sapiens, UniProt P13631); details: cited from earlier work
# T1 sequence (P13631 1-454): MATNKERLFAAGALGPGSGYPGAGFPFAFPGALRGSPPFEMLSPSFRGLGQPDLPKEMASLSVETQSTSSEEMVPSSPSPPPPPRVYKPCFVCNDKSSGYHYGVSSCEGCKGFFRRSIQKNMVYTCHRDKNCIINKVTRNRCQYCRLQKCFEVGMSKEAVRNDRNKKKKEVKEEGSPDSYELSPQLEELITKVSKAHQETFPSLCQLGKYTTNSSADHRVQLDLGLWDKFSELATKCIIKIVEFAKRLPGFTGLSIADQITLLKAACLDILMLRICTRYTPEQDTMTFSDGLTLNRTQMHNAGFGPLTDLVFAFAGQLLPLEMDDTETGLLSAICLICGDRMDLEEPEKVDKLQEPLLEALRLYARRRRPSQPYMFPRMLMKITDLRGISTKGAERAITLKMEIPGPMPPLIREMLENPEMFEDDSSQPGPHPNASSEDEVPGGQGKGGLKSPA
# RARa, β and γ = details: cited from earlier work
# RARγ [8] = target: T1, RARγ; assay: RAR antagonism, IC50 for RARγ (literature); format: biochemical
# [9] = beads implanted Day 5.5, examined Day 8.5
smiles,measurement,setting,value
CC1=C(/C=C/C(C)=C\C=C\C(C)=C\C(=O)O)C(C)(C)CCC1 [9-cis-RA],"efficiency of stimulating transcription, fold lower than all-trans-RA","[1]; F9 reporter cells, unpublished observations",10 fold
CC1=C(/C=C/C(C)=C/C=C/C(C)=C/C(=O)O)C(C)(C)CCC1 [all-trans-RA],β-galactosidase reporter response (histochemical),"[1]; 3 nM, 24 hr, positive control",positive
same,type X collagen transcripts,"[2]; 50 nM, 2, 4 or 6 days",marked time-dependent increase
same,alkaline phosphatase gene expression,[3]; 50 nM,increased dramatically
same,type X collagen expression,"[3]; 50 nM, 6 days of treatment",essentially eliminated
same,mineral deposition (alizarin red),"[4]; 25 or 50 nM, with β-glycerophosphate",abundant alizarin red-stainable mineral
same,lowest exogenous concentration to which reporter cells are very sensitive (high expression of β-gal),[5],10 pM
CCCCCCCOc1cc2c(cc1/C(C)=C/c1ccc(C(=O)O)cc1)C(C)(C)CCS2(=O)=O [Ro 41-5253],humerus shortening versus control contralateral humerus,"[6]; bead implanted stage 21-22, Day 10 embryos",about 50%
same,"type X collagen transcripts, antagonist alone",[2]; antagonist alone,did not have major effects
same,effect on all-trans-RA-induced increase in type X collagen transcripts,[2]; co-treatment 500 nM with 50 nM all-trans-RA,"significantly, though not totally, blocked"
same,"alkaline phosphatase and type X collagen gene expression, antagonist alone",[3]; antagonist alone,no major effects
same,effect on all-trans-RA responses of alkaline phosphatase and type X collagen genes,"[3]; co-treatment with 50 nM all-trans-RA, Ro 41-5253 at 500 nM",counteracted
same,mineralization on co-treatment with all-trans-RA,[4]; 500 nM with 25 or 50 nM all-trans-RA,almost no mineralization
same,"mineralization, antagonist alone",[4]; antagonist alone,had no effects
same,pIC50,RARγ [7],5.48
same,antagonism across RAR isotypes (selectivity in words),"RARa, β and γ",antagonistic effects on all RAR isoforms but preferentially on RARa
Cc1ccc(C2=CCC(C)(C)c3ccc(C#Cc4ccc(C(=O)O)cc4)cc32)cc1 [AGN 109],fold lower IC50 for RARγ compared to Ro 41-5253,RARγ [8],~500 fold
same,embryos with inhibited humerus development,"[6]; 3-4 beads implanted Day 5.5 (stage 28), examined Day 8.5",6/7
same,"chondrocyte maturation and endochondral ossification in treated humerus (histology, in situ hybridization)","[6]; bead implanted at early stage, Day 10 humeri",chondrocyte maturation and long bone development are interrupted
same,"concentration required for high frequency of humeral defects, relative to Ro 41-5253","[6]; bead implanted stage 21-22, Day 10",much lower concentrations
same,hypertrophy and RARγ / type X collagen transcripts in treated humeri,[6]; [9],had not advanced to the hypertrophic stage and lacked transcripts encoding RARγ and type X collagen
same,type II collagen expression in treated humeri (cell viability and differentiated functions),[6]; [9],very strong expression of type II collagen
same,delay of humerus development (reversibility),"[6]; beads implanted stage 28 (Day 5.5), examined Day 14",about 5 days
same,inhibition of humerus development,"[6]; single bead implanted Day 5.5 (stage 28), examined Day 8.5 (5/5)",not very effective
same,pIC50,RARγ [7],8.30
same,antagonism across RAR isotypes (selectivity in words),"RARa, β and γ","inhibits equally well RARa, β and γ"

# — US20030114482A1, “Use of retinoid receptor antagonists or agonists in the treatment of cartilage and bone pathologies” (priority 1999, published 2003)
